Data taken from ChEMBL document CHEMBL1142291, “A novel bicyclic hexapeptide, RA-XVIII, from Rubia cordifolia: structure, semi-synthesis, and cytotoxicity” (Bioorg Med Chem Lett, 2008).
In brackets after ≈: the same amount, converted by molar mass.

tested on: P388; experiment: Cytotoxicity against mouse P388 cells; assay type: functional, cell-based

Compared with `COc1ccc(C[C@H]2C(=O)N[C@@H](C)C(=O)N(C)[C@H]3Cc4ccc(cc4)Oc4cc(c(O)cc4OC)C[C@@H](C(=O)N[C@H](C)C(=O)N[C@@H](C)C(=O)N2C)N(C)C3=O)cc1`, `COc1ccc(C[C@H]2C(=O)N[C@@H](C)C(=O)N(C)[C@H]3Cc4ccc(cc4)Oc4cc(c(N)cc4OC)C[C@@H](C(=O)N[C@H](C)C(=O)N[C@@H](C)C(=O)N2C)N(C)C3=O)cc1` is 7.5-fold higher in IC50: 0.093 µg/mL (≈ 0.118 µM) for the first, 0.7 µg/mL (≈ 0.891 µM) for the second.

`COc1ccc(C[C@H]2C(=O)N[C@@H](C)C(=O)N(C)[C@H]3Cc4ccc(cc4)Oc4cc(cc([N+](=O)[O-])c4O)C[C@@H](C(=O)N[C@H](C)C(=O)N[C@@H](C)C(=O)N2C)N(C)C3=O)cc1` and `COc1ccc(C[C@H]2C(=O)N[C@@H](C)C(=O)N(C)[C@H]3Cc4ccc(cc4)Oc4cc(cc([N+](=O)[O-])c4OC)C[C@@H](C(=O)N[C@H](C)C(=O)N[C@@H](C)C(=O)N2C)N(C)C3=O)cc1` are within 1.5-fold of each other in IC50: 0.014 µg/mL (≈ 0.0175 µM) for the first, 0.01 µg/mL (≈ 0.0123 µM) for the second.

Going from `COc1ccc(C[C@H]2C(=O)N[C@@H](C)C(=O)N(C)[C@H]3Cc4ccc(cc4)Oc4cc(cc(N)c4OC)C[C@@H](C(=O)N[C@H](C)C(=O)N[C@@H](C)C(=O)N2C)N(C)C3=O)cc1` to `COc1ccc(C[C@H]2C(=O)N[C@@H](C)C(=O)N(C)[C@H]3Cc4ccc(cc4)Oc4cc(cc(O)c4OC)C[C@@H](C(=O)N[C@H](C)C(=O)N[C@@H](C)C(=O)N2C)N(C)C3=O)cc1`, the IC50 rises from 0.0071 µg/mL (≈ 0.00903 µM) to 0.012 µg/mL (≈ 0.0153 µM) (1.7-fold).

First: COc1ccc(C[C@H]2C(=O)N[C@@H](C)C(=O)N(C)[C@H]3Cc4ccc(cc4)Oc4cc(ccc4OC)C[C@@H](C(=O)N[C@H](C)C(=O)N[C@@H](C)C(=O)N2C)N(C)C3=O)cc1
Second: COc1ccc(C[C@H]2C(=O)N[C@@H](C)C(=O)N(C)[C@H]3Cc4ccc(cc4)Oc4cc(ccc4O)C[C@@H](C(=O)N[C@H](C)C(=O)N[C@@H](C)C(=O)N2C)N(C)C3=O)cc1 [DEOXYBOUVARDIN]
The IC50 of the first is 4.7-fold lower: 0.003 µg/mL (≈ 0.00389 µM) for the first, 0.014 µg/mL (≈ 0.0185 µM) for the second.

In the case of `COc1ccc(C[C@H]2C(=O)N[C@@H](C)C(=O)N(C)[C@H]3Cc4ccc(cc4)Oc4cc(c([N+](=O)[O-])cc4OC)C[C@@H](C(=O)N[C@H](C)C(=O)N[C@@H](C)C(=O)N2C)N(C)C3=O)cc1`, the IC50 is reported as 0.056 µg/mL (≈ 0.0686 µM).
